Earlier results in paper PMC11696226 (Nature Communications, 2025).
Like-named read-outs stand apart in the source and are kept apart here.

System: metastatic TNBC / breast cancer

## C=C1C[C@@H]2CC[C@@]34C[C@H]5O[C@H]6[C@@H](O3)[C@H]3O[C@H](CC[C@@H]3O[C@H]6[C@H]5O4)CC(=O)C[C@@H]3[C@@H](OC)[C@@H](C[C@H](O)CN)O[C@H]3C[C@H]3O[C@@H](CC[C@@H]1O2)C[C@@H](C)C3=C [eribulin]
TNBC, pooled EMBRACE and Study 301
  median OS: 12.4 month
TNBC, pooled EMBRACE and Study 301, 199 patients
  median PFS: 2.8 month

## SG: antibody-drug conjugate
ASCENT, metastatic TNBC
  median OS: 12.1 months
ASCENT, metastatic TNBC, ≥2 lines of chemotherapy
  median PFS: 5.6 months
ASCENT, p < 0.001
  HR for OS vs conventional chemotherapy: 0.48
  HR for PFS vs conventional chemotherapy: 0.41
